Measurements: patent publication US8026240B2, “Octahydro-pyrrolo[3,4-b]pyrrole N-oxides” (Abbott Laboratories, priority 2007, dated 2011)

Biological target: T1, rat histamine-3 receptor (Rattus norvegicus, UniProt Q9QYN8)
T1 construct: expressed in transfected cells; host or cells: C6 or HEK293 cells
Assay: histamine-3 receptor competition binding with [H3]-N-α-methylhistamine
Procedure: To determine the effectiveness of representative compounds of this invention as histamine-3 receptor ligands, the following tests were conducted according to previously described methods (see Arrang et al, “Histamine H3 Receptor Binding Sites in Rat Brain Membranes:Modulations by Guanine Nucleotides and Divalent Cations”, European Journal of Pharmacology, Vol. 188, pp. 219-227 (1990); Tedford et al., “Pharmacological Characterization of GT-2016, A Non-Thiourea-Containing Histamine H3 Receptor Antagonist: In Vitro and In Vivo Studies”, The Journal of Pharmacology and Experimental Therapeutics, Vol. 275, pp. 598-604 (1995); Leurs et al., “Histamine Homologues Discriminating Between Two Functional H3-Receptor Assays. Evidence for H3 Receptor”, Journal of Pharmacology and Experimental Therapeutics, Vol. 276, No. 3, pp. 1009-1015 (1996); and Cheng et al., “Relationship Between the Inhibition Constant (K1) and the Concentration of Inhibitor which Causes 50% Inhibition (150) of an Enzymatic Reaction”, Biochemical Pharmacology, Vol. 22., pp. 3099-3108 (1973)).
The rat histamine-3 receptor was cloned and expressed in cells, and competition binding assays carried out, according to methods previously described (see Esbenshade et al., “Pharmacological Properties of ABT-239 [4-(2-{2-[(2R)-2-Methylpyrrolidinyl ]ethyl}-benzofuran-5-yl)benzonitrile]: I. Potent and Selective Histamine H3 Receptor Antagonist with Drug-Like Properties”, Journal of Pharmacology and Experimental Therapeutics, Vol. 313, pp. 165-175, (2005); Esbenshade et al., “Pharmacological and Behavioral Properties of A-349821, a Selective and Potent Human Histamine H3 Receptor Antagonist”, Biochemical Pharmacology, Vol 68, pp. 933-945 (2004); Krueger et al., “G Protein-Dependent Pharmacology of Histamine H3 Receptor Ligands: Evidence for Heterogeneous Active State Receptor Conformations”, Journal of Pharmacology and Experimental Therapeutics, Vol. 314, pp. 271-281 (2005)). Membranes were prepared from C6 or HEK293 cells, expressing the rat histamine-3 receptor, by homogenization on ice in TE buffer (50 mM Tris-HCl buffer, pH 7.4, containing 5 mM EDTA), 1 mM benzamidine, 2 μg/ml aprotinin, 1 μg/ml leupeptin, and 1 μg/ml pepstatin. The homogenate was centrifuged at 40,000 g for 20 minutes at 4° C. […]
Membrane preparations were incubated with [H3]-N-α-methylhistamine (0.5-1.0 nM) in the presence or absence of increasing concentrations of ligands of formula (I) and formula (II) for histamine-3 receptor competition binding. […] Bound radiolabel was determined by liquid scintillation counting. For all of the radioligand competition binding assays, IC50 values and Hill slopes were determined by Hill transformation of the data and pKi values were determined by the Cheng-Prusoff equation.

[1] = compounds of formula (I), mean of 4 separate determinations

T1 sequence (Q9QYN8 whole entry): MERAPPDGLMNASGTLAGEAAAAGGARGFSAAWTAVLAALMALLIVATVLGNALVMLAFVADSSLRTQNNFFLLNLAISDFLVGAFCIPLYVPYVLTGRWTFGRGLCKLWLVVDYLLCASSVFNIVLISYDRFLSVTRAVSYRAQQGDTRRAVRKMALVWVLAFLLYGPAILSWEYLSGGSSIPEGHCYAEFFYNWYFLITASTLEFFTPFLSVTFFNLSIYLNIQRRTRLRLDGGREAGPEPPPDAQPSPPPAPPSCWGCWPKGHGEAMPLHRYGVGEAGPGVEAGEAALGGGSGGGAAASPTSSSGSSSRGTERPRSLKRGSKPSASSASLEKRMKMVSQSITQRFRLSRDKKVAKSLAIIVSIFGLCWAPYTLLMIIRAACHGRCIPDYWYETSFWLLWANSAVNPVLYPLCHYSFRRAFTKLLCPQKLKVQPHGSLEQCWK

Row | Ki [1] | Structure (SMILES) | Ki (compounds of formula (II))
1 | – | CN1C[C@H]2CCN(c3ccc(-c4ccc(-n5ncccc5=O)nc4)cc3)[C@H]2C1 [2-(5-{4-[(3aR,6aR)-5-methylhexahydropyrrolo[3,4-b]pyrrol-1(2H)-yl]phenyl}pyridin-2-yl) pyridazin-3(2H)-one] | 3.5 nM
2 | 2240 nM | C[N@+]1([O-])C[C@H]2CCN(c3ccc(-c4ccc(-n5ncccc5=O)cc4)cc3)[C@H]2C1 (single isomer, unassigned) | –
3 | > 5000 nM | C[N@@+]1([O-])C[C@H]2CCN(c3ccc(-c4ccc(-n5ncccc5=O)cc4)cc3)[C@H]2C1 (single isomer, unassigned) | –
4 | – | CN1C[C@H]2CCN(c3ccc(-c4ccc(-n5ncccc5=O)cc4)cc3)[C@H]2C1 [2-{4′-[(3aR,6aR)-5-methylhexahydropyrrolo[3,4-b]pyrrol-1(2H)-yl]-1,1′-biphenyl-4-yl}pyridazin-3(2H)-one] | 8.2 nM
